Experimental data reported in the NIST ThermoML archive (doi:10.1016/j.jct.2017.03.006).

Conditions: Liquid; for mass density: Vibrating tube method; for viscosity: Concentric cylinders viscometry

CCC(C)O (centres undefined) [butan-2-ol]
Conditions	mass density [kg/m3]	viscosity [mPa·s]
273.15 K, 100 kPa	822.3	–
273.15 K, 1000 kPa	822.7	–
273.15 K, 2000 kPa	823.4	–
273.15 K, 5000 kPa	825.4	–
273.15 K, 10000 kPa	828.7	–
273.15 K, 15000 kPa	831.8	–
273.15 K, 20000 kPa	834.7	–
273.15 K, 30000 kPa	840.4	–
273.15 K, 40000 kPa	845.7	–
273.15 K, 50000 kPa	850.7	–
273.15 K, 60000 kPa	855.4	–
273.15 K, 70000 kPa	859.9	–
273.15 K, 80000 kPa	864.3	–
273.15 K, 90000 kPa	868.4	–
273.15 K, 100000 kPa	872.4	–
273.15 K, 110000 kPa	876.3	–
273.15 K, 120000 kPa	879.9	–
273.15 K, 130000 kPa	883.5	–
273.15 K, 140000 kPa	887.2	–
293.15 K, 100 kPa	806.3	3.725
293.15 K, 1000 kPa	807	–
293.15 K, 2000 kPa	807.8	–
293.15 K, 5000 kPa	810	–
293.15 K, 10000 kPa	813.6	–
293.15 K, 15000 kPa	817	–
293.15 K, 20000 kPa	820.2	–
293.15 K, 30000 kPa	826.5	–
293.15 K, 40000 kPa	832.3	–
293.15 K, 50000 kPa	837.7	–
293.15 K, 60000 kPa	842.8	–
293.15 K, 70000 kPa	847.7	–
293.15 K, 80000 kPa	852.3	–
293.15 K, 90000 kPa	856.7	–
293.15 K, 100000 kPa	860.9	–
293.15 K, 110000 kPa	865	–
293.15 K, 120000 kPa	868.8	–
293.15 K, 130000 kPa	872.7	–
293.15 K, 140000 kPa	876.3	–
303.15 K, 100 kPa	–	2.555
313.15 K, 100 kPa	789.4	1.814
313.15 K, 1000 kPa	790.1	–
313.15 K, 2000 kPa	791	–
313.15 K, 5000 kPa	793.5	–
313.15 K, 10000 kPa	797.5	–
313.15 K, 15000 kPa	801.4	–
313.15 K, 20000 kPa	805.1	–
313.15 K, 30000 kPa	811.9	–
313.15 K, 40000 kPa	818.3	–
313.15 K, 50000 kPa	824.1	–
313.15 K, 60000 kPa	829.6	–
313.15 K, 70000 kPa	835	–
313.15 K, 80000 kPa	839.9	–
313.15 K, 90000 kPa	844.6	–
313.15 K, 100000 kPa	849	–
313.15 K, 110000 kPa	853.3	–
313.15 K, 120000 kPa	857.5	–
313.15 K, 130000 kPa	861.5	–
313.15 K, 140000 kPa	865.4	–
323.15 K, 100 kPa	–	1.331
333.15 K, 100 kPa	770.7	1.007
333.15 K, 1000 kPa	771.6	–
333.15 K, 2000 kPa	772.6	–
333.15 K, 5000 kPa	775.5	–
333.15 K, 10000 kPa	780.1	–
333.15 K, 15000 kPa	784.4	–
333.15 K, 20000 kPa	788.6	–
333.15 K, 30000 kPa	796.2	–
333.15 K, 40000 kPa	803.2	–
333.15 K, 50000 kPa	809.6	–
333.15 K, 60000 kPa	815.7	–
333.15 K, 70000 kPa	821.4	–
333.15 K, 80000 kPa	826.7	–
333.15 K, 90000 kPa	831.8	–
333.15 K, 100000 kPa	836.6	–
333.15 K, 110000 kPa	841.2	–
333.15 K, 120000 kPa	845.5	–
333.15 K, 130000 kPa	849.8	–
333.15 K, 140000 kPa	853.9	–

Cc1ccc(C)c(C)c1 [1,2,4-trimethylbenzene]
Conditions	mass density [kg/m3]	viscosity [mPa·s]
273.15 K, 100 kPa	891.7	–
273.15 K, 1000 kPa	892.3	–
273.15 K, 2000 kPa	892.9	–
273.15 K, 5000 kPa	894.6	–
273.15 K, 10000 kPa	897.4	–
273.15 K, 15000 kPa	900.2	–
273.15 K, 20000 kPa	902.8	–
273.15 K, 30000 kPa	908	–
273.15 K, 40000 kPa	912.9	–
273.15 K, 50000 kPa	917.5	–
273.15 K, 60000 kPa	921.9	–
273.15 K, 70000 kPa	926.2	–
273.15 K, 80000 kPa	930.3	–
273.15 K, 90000 kPa	934.2	–
273.15 K, 100000 kPa	938	–
273.15 K, 110000 kPa	941.7	–
273.15 K, 120000 kPa	945.2	–
273.15 K, 130000 kPa	948.6	–
273.15 K, 140000 kPa	952	–
283.15 K, 100 kPa	883.3	–
283.15 K, 1000 kPa	883.9	–
283.15 K, 2000 kPa	884.5	–
283.15 K, 5000 kPa	886.3	–
283.15 K, 10000 kPa	889.3	–
283.15 K, 15000 kPa	892.2	–
283.15 K, 20000 kPa	895	–
283.15 K, 30000 kPa	900.3	–
283.15 K, 40000 kPa	905.4	–
283.15 K, 50000 kPa	910.2	–
283.15 K, 60000 kPa	914.8	–
283.15 K, 70000 kPa	919.3	–
283.15 K, 80000 kPa	923.5	–
283.15 K, 90000 kPa	927.5	–
283.15 K, 100000 kPa	931.4	–
283.15 K, 110000 kPa	935.2	–
283.15 K, 120000 kPa	938.9	–
283.15 K, 130000 kPa	942.4	–
283.15 K, 140000 kPa	945.8	–
293.15 K, 100 kPa	875.1	0.888
293.15 K, 1000 kPa	875.7	–
293.15 K, 2000 kPa	876.3	–
293.15 K, 5000 kPa	878.2	–
293.15 K, 10000 kPa	881.4	–
293.15 K, 15000 kPa	884.4	–
293.15 K, 20000 kPa	887.3	–
293.15 K, 30000 kPa	892.9	–
293.15 K, 40000 kPa	898.2	–
293.15 K, 50000 kPa	903.2	–
293.15 K, 60000 kPa	908	–
293.15 K, 70000 kPa	912.6	–
293.15 K, 80000 kPa	916.9	–
293.15 K, 90000 kPa	921.1	–
293.15 K, 100000 kPa	925.1	–
293.15 K, 110000 kPa	929	–
293.15 K, 120000 kPa	932.8	–
293.15 K, 130000 kPa	936.4	–
293.15 K, 140000 kPa	939.9	–
303.15 K, 100 kPa	867	0.779
303.15 K, 1000 kPa	867.6	–
303.15 K, 2000 kPa	868.3	–
303.15 K, 5000 kPa	870.3	–
303.15 K, 10000 kPa	873.6	–
303.15 K, 15000 kPa	876.8	–
303.15 K, 20000 kPa	879.8	–
303.15 K, 30000 kPa	885.7	–
303.15 K, 40000 kPa	891.2	–
303.15 K, 50000 kPa	896.4	–
303.15 K, 60000 kPa	901.4	–
303.15 K, 70000 kPa	906.1	–
303.15 K, 80000 kPa	910.6	–
303.15 K, 90000 kPa	914.9	–
303.15 K, 100000 kPa	919.1	–
303.15 K, 110000 kPa	923.1	–
303.15 K, 120000 kPa	927	–
303.15 K, 130000 kPa	930.7	–
303.15 K, 140000 kPa	934.3	–
313.15 K, 100 kPa	859	0.692
313.15 K, 1000 kPa	859.7	–
313.15 K, 2000 kPa	860.4	–
313.15 K, 5000 kPa	862.6	–
313.15 K, 10000 kPa	866	–
313.15 K, 15000 kPa	869.3	–
313.15 K, 20000 kPa	872.6	–
313.15 K, 30000 kPa	878.7	–
313.15 K, 40000 kPa	884.5	–
313.15 K, 50000 kPa	889.9	–
313.15 K, 60000 kPa	895	–
313.15 K, 70000 kPa	899.9	–
313.15 K, 80000 kPa	904.6	–
313.15 K, 90000 kPa	909	–
313.15 K, 100000 kPa	913.3	–
313.15 K, 110000 kPa	917.4	–
313.15 K, 120000 kPa	921.4	–
313.15 K, 130000 kPa	925.2	–
313.15 K, 140000 kPa	928.9	–
323.15 K, 100 kPa	851.3	0.62
323.15 K, 1000 kPa	852	–
323.15 K, 2000 kPa	852.7	–
323.15 K, 5000 kPa	855	–
323.15 K, 10000 kPa	858.6	–
323.15 K, 15000 kPa	862.1	–
323.15 K, 20000 kPa	865.5	–
323.15 K, 30000 kPa	871.9	–
323.15 K, 40000 kPa	877.9	–
323.15 K, 50000 kPa	883.5	–
323.15 K, 60000 kPa	888.9	–
323.15 K, 70000 kPa	894	–
323.15 K, 80000 kPa	898.8	–
323.15 K, 90000 kPa	903.4	–
323.15 K, 100000 kPa	907.8	–
323.15 K, 110000 kPa	912	–
323.15 K, 120000 kPa	916.1	–
323.15 K, 130000 kPa	920	–
323.15 K, 140000 kPa	923.8	–
333.15 K, 100 kPa	843.6	0.562
333.15 K, 1000 kPa	844.4	–
333.15 K, 2000 kPa	845.2	–
333.15 K, 5000 kPa	847.6	–
333.15 K, 10000 kPa	851.4	–
333.15 K, 15000 kPa	855.1	–
333.15 K, 20000 kPa	858.6	–
333.15 K, 30000 kPa	865.3	–
333.15 K, 40000 kPa	871.6	–
333.15 K, 50000 kPa	877.4	–
333.15 K, 60000 kPa	883	–
333.15 K, 70000 kPa	888.2	–
333.15 K, 80000 kPa	893.2	–
333.15 K, 90000 kPa	898	–
333.15 K, 100000 kPa	902.5	–
333.15 K, 110000 kPa	906.9	–
333.15 K, 120000 kPa	911.1	–
333.15 K, 130000 kPa	915.1	–
333.15 K, 140000 kPa	919	–
